Columns and labels:
HEI-OC1 cells = assay: Caspase-Glo 3/7 assay in HEI-OC1 cells treated with Cisplatin; assay type: cell-based, mouse
Description: Now referring to FIG. 3A, and FIGS. 3D-3E, compounds protect from cisplatin toxicity in the mouse inner ear cell line. House Ear Institute-Organ of Corti 1 (HEI-OC1) cells (House Research Institute) were maintained in high-glucose Dulbecco's modified Eagle medium supplemented with 10% fetal bovine serum (Life Technologies, USA) at 33° C. and 10% CO2 as previously described (Kalinec et al., 2003). Cells were seeded at 8,000 cells/well in 96 well plates and left to attach overnight. Now referring to FIG. 3A, For the drug screening, HEI-OC1 cells were pretreated with 30 drug candidates at concentrations ranging from 2 nM to 40 μM one hour before receiving cisplatin. The cisplatin dose (50 μM) was based on our previously published dose response curve. The cells were co-incubated with cisplatin and drug candidates for an additional 19 hours prior to Caspase-Glo 3/7 assay (Promega, Madison, WI) as previously shown. Additionally, […] kenpaullone-treated cells were used as positive controls to validate our results. The DMSO concentration in drug preparation was adjusted to 0.1% v/v and it was verified that 0.5% DMSO had no effect on the cell death kinetics (Hall et al., 2014). Results of the assay were run in triplicate and normalized to cisplatin-only and media-only controls. The percent caspase activity was used to determine the relative protective effect of each compound. The luminescence detection representing caspase activity in each well was obtained using a Cytation Hybrid Multi-Mode Reader (Biotek, Winooski, VT, USA). The percent protection of the cells was calculated using caspase 3/7 readouts and the following formula: […]
In the following examples, Niclosamide, 5-chloro-N-(2-chloro-4-nitrophenyl)-2-hydroxy-benzamide, with a ≥95% purity was used for all experiments (Cayman Chemical, USA).

Nrf2 = assay: nrf2a morpholino knock-down zebrafish exposed to cisplatin and niclosamide; assay type: in vivo; settings: non-injected and scrambled control zebrafish; 18.3 nM, cisplatin 300 μM
Description: Additionally to FIGS. 6A-6B, but not shown, 5 dpf zebrafish were incubated for 6 hours with vehicle, niclosamide (2 nM to 1.48 μM) and the nrf2 pathway activator […] (DEM) as a positive control, in order to evaluate the effect of niclosamide on ggcsh, a nrf2 downstream target. Ggcsh was previously validated as a Nrf2 downstream target in zebrafish. (Sheets, 2017). Following incubation, the total RNA was isolated from whole fish and processed to measure the induced expression of nrf2 downstream gene ggcsh. […] Additionally, Nrf2a morpholinos morphlinos were prepared, followed by incubation of the zebrafish morphants with cisplatin and/or niclosamide. Zebrafish eggs were injected with 4.5 ng of scrambled morpholino or nrf2a morpholino (5′-[…] SEQ NO: 1). At 3 dpf non-injected and morphant animals were exposed to vehicle, cisplatin (300 μM), cisplatin+niclosamide 18.3 nM or niclosamide alone for 6 hours. Following 1-hour recovery, animals were fixed and processed for immunohistochemistry. Nrf2a KD was confirmed by analyzing expression of Glutathione S-transferase P1 (gstp1), a downstream target, due to lack of proper antibody to detect Nrf2 protein in zebrafish.

SHP77 = assay: Survival of SHP77 cells with or without Cisplatin and Niclosamide; assay type: cell-based; settings: 10 nM
Description: Now referring to FIG. 8, In vitro model of […] incubated with or without Cisplatin and 10 nM of Niclosamide. Cells were maintained in culture with the aid of Matrigel as previously described in Kelley and Driver, Curr. Protoc. Neurosci. Ch.(4); Unit(4); 34.1-10 (2010). After cells had been in culture for 1 d, growth medium DMEM (12430-054; GIB CO Life Technologies, with 1% FBS [16000-044; GIB CO Life Technologies] and 50 μg/ml ampicillin) with or without test compounds may be added for preincubation for 1 hr. at 37° C. in 5% Co2, and may be followed by incubation with 50 μM Cisplatin (479306; Sigma-Aldrich) with or without the test compound in growth medium for 24 hr. at 37° C. A Cisplatin concentration of 50 μM may be used for the explant assay due to its consistent showing of decreases outer hair cells by about −40% in the mouse cochlea after 24 hours. Cochlea may be fixed in 4% PFA and stained for actin with Alex Fluor 568 phalloidin to determine the viability of the HCs. Cochlea may also be stained by DAPI, FM1-43 dye uptake, and immunohistochemical staining for known HC markers (including parvalbumin and myosin 7a. Cochlea may be imaged by confocal microscopy. Two 160-μm regions from middle turns may be photographed, and the number of intact HCs can be counted.

O=C(Nc1ccc([N+](=O)[O-])cc1Cl)c1cc(Cl)ccc1O [Niclosamide, 5-chloro-N-(2-chloro-4-nitrophenyl)-2-hydroxy-benzamide]
share of the dosage range tested with some level of protection (HEI-OC1 cells; 2 nM to 40 μM tested): over 80% | protection against Cisplatin damage compared to kenpaullone (HEI-OC1 cells; HEI-OC1 cells): comparable levels of protection to kenpaullone | protection compared to sodium thiosulfate, ebselen, dexamethasone, N-acetylcysteine (HEI-OC1 cells; HEI-OC1 cells): better protection than four other benchmark compounds | caspase activity (HEI-OC1 cells; at a dosage of ~4.4 μM, Cisplatin 50 μM): 0% | caspase-3/7 activity relative to control cells (HEI-OC1 cells; dose of 4.4 μM, Cisplatin 50 μM): reduce caspase activity to comparable levels as control cells | hair cell number after cotreatment with cisplatin (Nrf2): significantly higher hair cell number | effect on Cisplatin-tumor killing activity (SHP77): did not affect Cisplatin-tumor killing activity
